Experimental data reported in patent publication US20070219191A1, “3-Pyridinium Methyl Cephem Compound” (priority 2004, published 2007).
In brackets after ≈: the same amount, converted by molar mass.

Experiments:
Assay in all cases: Antibacterial activity, MIC by agar plate dilution method
Type in all cases: cell-based
H. influenzae ATCC49766 = settings: Haemophilus influenzae, 1000 cfu/spot
Procedure: (§1) Antibacterial activity of Compound (I) was examined.
(§2) Minimal inhibitory concentration (MIC: μg/ml) was determined by an agar plate dilution method using a sensitive disc medium as a test medium with an innoculation amount of 1000 cfu/spot in conformance with the standard method established by Japanese Society of Chemotherapy.

S. pneumoniae Type I = settings: Streptococcus pneumoniae, 1000 cfu/spot
Procedure: as §1, §2

E. coli NIHJ JC-2 = settings: Escherichia coli, NIHJJC2, 1000 cfu/spot
Procedure: as §1, §2

P. aeruginosa SR24 = settings: Pseudomonas aeruginosa, 1000 cfu/spot
Procedure: as §1, §2

Structure (SMILES) | MIC (H. influenzae ATCC49766) | MIC (S. pneumoniae Type I) | MIC (E. coli NIHJ JC-2) | MIC (P. aeruginosa SR24)
CC(C)(O/N=C(\C(=O)NC1C(=O)N2C(C(=O)[O-])=C(C[n+]3ccc(NC4CCNC4)cc3)CSC12)c1nsc(N)n1)C(=O)O (stereo not shown) [Example 5] | 0.063 µg/mL (≈ 0.0997 µM) | 0.125 µg/mL (≈ 0.198 µM) | 0.125 µg/mL (≈ 0.198 µM) | 0.5 µg/mL (≈ 0.792 µM)
Cc1c(N)[nH]c2ccc[n+](CC3=C(C(=O)[O-])N4C(=O)C(NC(=O)/C(=N\OC(C)(C)C(=O)O)c5nsc(N)n5)C4SC3)c12 (stereo not shown) [Example 10] | 0.016 µg/mL (≈ 0.026 µM) | 0.125 µg/mL (≈ 0.203 µM) | 0.25 µg/mL (≈ 0.406 µM) | 0.5 µg/mL (≈ 0.812 µM)
CC(C)(O/N=C(\C(=O)NC1C(=O)N2C(C(=O)[O-])=C(C[n+]3cccc4c3nc(N)n4C3CCNCC3)CSC12)c1nsc(N)n1)C(=O)O (stereo not shown) [Example 12] | 0.032 µg/mL (≈ 0.0467 µM) | 0.25 µg/mL (≈ 0.365 µM) | 0.125 µg/mL (≈ 0.182 µM) | 0.25 µg/mL (≈ 0.365 µM)
C[C@H](N)CCn1c(N)nc2c1ccc[n+]2CC1=C(C(=O)[O-])N2C(=O)C(NC(=O)/C(=N\OC(C)(C)C(=O)O)c3nsc(N)n3)C2SC1 (stereo partly shown) [Example 19] | 0.032 µg/mL (≈ 0.0475 µM) | 0.125 µg/mL (≈ 0.186 µM) | 0.125 µg/mL (≈ 0.186 µM) | 0.5 µg/mL (≈ 0.742 µM)
